Laboratory results reported in PMC6058731, “Dual-targeting for brain-specific drug delivery: synthesis and biological evaluation” (Drug Delivery, 2018).

Key:
[1] = Metabolic stability in mice brain homogenate; type: in vitro ADME; details: 37 °C
Description: (§1) The preliminary metabolic stability of prodrugs was studied by incubating in plasma and brain homogenate, respectively. 1 ml of the prodrugs methanol solution (250 μM) was added into 4 ml plasma or brain homogenate. Then, the entire system was kept at 37 ± 0.5 °C with continuous shaking at 100 rpm/min. 200 μl samples were taken at the following time points: 0, 0.5, 1, 2, 3, 6, 12, and 24 h, and then replaced by plasma or brain homogenate. The internal standard (naproxen, 10 μl, 30 μg/ml) was added to each sample followed by 200 μl acetonitrile.
(§2) The metabolic stability of the prodrugs was studied in the mice plasma and brain homogenate at 37 °C. The Kdisapp and t1/2 of the prodrugs in plasma and brain homogenate were calculated by linear regression of the peak area against time (Table 2).

[2] = system: cerebral ischemia model induced by bilateral common carotid artery occlusion; assay: Brain ischemia model, TTC staining of brain sections; type: in vivo, Wistar rats; details: rats, 1 mg/kg (calculated as ibuprofen) tail vein, 30 min before 1.5 h ligation
[3] = In vitro chemical stability in phosphate buffers; type: physicochemical; details: 37 °C
Description: The in vitro chemical stability of prodrugs was investigated by incubating the prodrugs in pH 2.5, 5.0, 7.4 and 8.0 phosphate buffers, respectively. Briefly, 1 ml of the prodrugs methanol solution (250 μg/ml) was added into 4 ml different buffer separately. The entire system was kept at 37 ± 0.5 °C with continuous shaking at 100 rpm/min. 200 μl medium samples were taken at the following time points: 0, 0.5, 1, 2, 3, 6, 12, and 24 h, and then replaced by fresh medium. The samples were analyzed by HPLC (Shimadzu). The analysis was accomplished on a SinoChrom ODS-C18 column (Dalian, China) (200 × 4.6 mm, […]), thermostated at 35 °C. The mobile phase was composed of methanol/water (73:27), and the pH was adjusted to 2.86 with 10% phosphoric acid. The UV […] was 225 nm and the flow rate was set at 1.0 ml/min with a 20 μl injection volume.
These solutions were maintained at 37 °C, and the aliquots were withdrawn in predetermined time intervals, then the concentrations of the prodrugs were determined by HPLC method.

[4] = Metabolic stability in mice plasma; type: in vitro ADME; details: 37 °C
Description: as §1, §2

[5] = system: cerebral ischemia model induced by bilateral common carotid artery occlusion; assay: Brain ischemia model, SOD, MDA and GSH in brain homogenate; type: in vivo, Wistar rats; details: rat brain homogenate, 1 mg/kg (calculated as ibuprofen) tail vein; for MDA level: relative to sham group
PC12 cells [6] = assay: Neuroprotective effect against H2O2-induced cytotoxicity, MTT cell viability; type: cell-based; details: Rattus norvegicus, PC-12, 10 μM pretreatment 4 h, then H2O2 (1 μM) 2 h, read-out: Cell viability (survival rate compared to control)
Description: (§3) The in vitro neurotoxicity model was established using H2O2 to induce oxidative stress and injury in PC12 cells.
Briefly, PC12 cells were seeded in 96-well plates at the density of 6 × 10^4 cell/well and incubated at 37 °C for 24 h. […] After the treatment, the cells were observed under inverted phase contrast microscopy and cell images were recorded. Subsequently, the cells viability was assessed by MTT assay using a microplate reader.

PC12 cells [7] = assay: SOD activity after H2O2 in vitro (colorimetry kit); type: cell-based; details: 10 μM pretreatment 4 h, then H2O2 (1 μM) 2 h
Description: as §3
The ROS assay kit (S0033; Beyotime Institute of Biotechnology, Jiangsu, China) in DCFH-DA method was used to determine the intracellular ROS generation. PC12 cells were seeded in six-well plates at a density of 5 × 10^5 cells/well and incubated at 37 °C for 24 h. […] Then trypsin–EDTA was used to harvest the cells, which were washed three times with PBS afterward, and finally stained with 2′,7′-dichlorofluorescein diacetate (DCFH-DA, 10 μM) and incubated for 20 min at 37 °C in the dark. After centrifugation (2000 rpm, 3 min), the cell pellet was washed three times with PBS, resuspended in PBS before flow cytometer analysis (Ex 488 nm and Em 525 nm). SOD is an index of superoxide level which neutralizes free oxygen radicals, usually being tested along with ROS level showing oxidative stress. In brief, after harvesting, the cells were resuspended in PBS and lysed by Ultrasonic cell grinder (SCIENTZ-II D, Zhejiang, China) to obtain the cell lysis solution. Then, the SOD activity was evaluated using colorimetry kits (A001; Nanjing Jiancheng Bioengineering Institute, Nanjing, China). Untreated cells were used as the control.

[8] = Distribution in brain in mice, brain homogenate; type: in vivo, Kunming mice; details: for AUC(0–t): brain homogenate, ibuprofen after hydrolysis of sample, 10 mg/kg (calculated as ibuprofen) tail vein
Description: Kunming mice weighing 20–22 g were purchased from DOSSY Experimental Animal Center of Chengdu (Sichuan, China). All animal procedures for this study were approved by the Experiment Animal Administrative Committee of Sichuan University (P.R. China).
At appropriate time interval (5, 10, 15, 30, 45, 60, 90, 120, 240 and 480 min), blood was collected from the eye socket of mouse into a tube containing heparin, and centrifuged at 5000 rpm for 5 min. The supernatant was collected as plasma sample. The animals were killed by cervical dislocation, and the brain tissue was removed, and then washed with saline for three times to remove the remained blood and rolled over on the filter paper to remove the main vessel. All the brain tissues were homogenized with twice amount of saline. An aliquot of 10 μl of internal standard (naproxen, 30 μg/ml) was added into 200 μl plasma or 200 μl brain homogenate, the mixture was vortexed with 200 μl methanol for 5 min. Then, an aliquot of 50 μl of 6 M NaOH aqueous solution was added to the spiking mixture. […] Followed by vortexing for 5 min, 0.6 ml acetonitrile was added and the mixture was centrifuged at 15,000 rpm for 10 min. The separated supernatant was evaporated to dryness at 40 °C under air flow. The residues were redissolved in 50 μl methanol and centrifuged at 15,000 rpm for 10 min, and then 20 μl of the supernatant was injected into the HPLC system for analysis.
The area under the curve (AUC0–t) and the maximal concentration (Cmax) were calculated by Data and Statistics (DAS, Shanghai, China). The statistical analysis of the samples was performed by using a Student’s t-test with p values < .05 as the minimal level of significance. The relative uptake efficiency (RE) and concentration efficiency (CE) were calculated to evaluate the brain-targeting property of prodrugs. The values of REbrain and CEbrain are defined as follows: RE = (AUC 0) Pro/(AUC 0) Ibu, CE=(Cmax)Pro/(Cmax)Ibu.

[9] = Kunming, mouse, iv, brain, analyte intact prodrug, before hydrolysis, 10 mg/kg tail vein
[10] = brain, analyte ibuprofen (dosed or released), before hydrolysis, 10 mg/kg tail vein

Q: Which Kdisapp [1] does the source give for CC(C)Cc1ccc(C(C)C(=O)OC(COC(=O)CCC(=O)OCC2OC(O)C(O)C(O)C2O)C2OC(=O)C(O)=C2O)cc1 (centres unmarked) [Glu-Vc-Ibu] here?
A: Its Kdisapp is 0.000542 s⁻¹.

Q: And the half-life at 50 μM ([1]; mouse)?
A: The half-life at 50 μM was 0.355 h.

Q: What about the “TTC red-staining rate compared with the sham group” value [2] of the same compound?
A: The value was 87.95%.

Q: What about the Kdisapp ([3]; pH 2.5 phosphate buffer) of the same compound?
A: The Kdisapp was 1.07e-05 s⁻¹.

Q: What about the half-life at 50 μg/ml ([3]; pH 2.5 phosphate buffer) of the same compound?
A: Its half-life at 50 μg/ml is 18.1 h.

Q: And the Kdisapp ([3]; pH 5.0 phosphate buffer)?
A: Its Kdisapp is 3.86e-06 s⁻¹.

Q: What about the half-life at 50 μg/ml ([3]; pH 5.0 phosphate buffer) of the same compound?
A: Its half-life at 50 μg/ml is 49.9 h.

Q: What about the Kdisapp ([3]; pH 7.4 phosphate buffer) of the same compound?
A: The Kdisapp was 1.5e-05 s⁻¹.

Q: And the half-life at 50 μg/ml ([3]; pH 7.4 phosphate buffer)?
A: Its half-life at 50 μg/ml is 12.8 h.

Q: And the Kdisapp ([3]; pH 8.0 phosphate buffer)?
A: Its Kdisapp is 1.74e-05 s⁻¹.

Q: What about the half-life at 50 μg/ml ([3]; pH 8.0 phosphate buffer) of the same compound?
A: Its half-life at 50 μg/ml is 11.1 h.

Q: And the Kdisapp [4]?
A: The Kdisapp was 0.000187 s⁻¹.

Q: And the half-life at 50 μM ([4]; mouse)?
A: The half-life at 50 μM was 1.03 h.

Q: And the SOD activity [5]?
A: The SOD activity was “significant raise compared with saline group or ibuprofen group”.

Q: What about the MDA level [5] of the same compound?
A: Its MDA level is 110.96%.

Q: And the viability at 10 µM (PC12 cells [6])?
A: Its viability at 10 µM is 89.9%.

Q: And the SOD activity (PC12 cells [7])?
A: The SOD activity was “markedly relieved the damage compared with others”.

Q: And the Cmax [8, 9]?
A: The Cmax was 26400 ± 1970 ng/g.

Q: What about the MRT [8, 9] of the same compound?
A: Its MRT is 2.73 h.

Q: And the Tmax [8, 9]?
A: Its Tmax is 0.25 h.

Q: And the “AUC(0–t)” value [8]?
A: Its value is 7308.11 ± 447.86 µg·min/g.

Q: What about the “AUC(0-t)” value [8, 10] of the same compound?
A: Its value is 3393.98 ± 257.39 µg·min/g.

Q: And the “AUC(0-t)” value ([8]; brain, analyte intact prodrug, before hydrolysis, 10 mg/kg tail vein)?
A: The value was 3459.18 ± 223.76 µg·min/g.

Q: With CC(C)Cc1ccc(C(C)C(=O)O)cc1 (centres unmarked) [Ibuprofen, reference compound] as the compound, how does the “TTC red-staining rate compared with the sham group” value [2] read?
A: The value was 48.09%.

Q: And the SOD activity [5]?
A: Its SOD activity is “did not obviously reverse the decrease of SOD activity”.

Q: What about the MDA level [5] of the same compound?
A: Its MDA level is 192.42%.

Q: What about the viability at 10 µM (PC12 cells [6]) of the same compound?
A: Its viability at 10 µM is 74.1%.

Q: What about the “AUC(0–t)” value [8] of the same compound?
A: The value was 2782.42 ± 176.55 µg·min/g.

Q: What about the “AUC(0-t)” value [8, 10] of the same compound?
A: Its value is 2782.42 ± 176.55 µg·min/g.
